Assay results published in PubChem BioAssay (NCI).
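Method: 48-hour compound exposure of cells in 96-well plates, five concentrations, linear interpolation of endpoints. The concentration for 50% growth inhibition is given as GI50. TGI marks complete inhibition of growth.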

Legend:
Experiment in all cases: NCI anticancer screen, dose series, 48 h
MDA-MB-435 = system: MDA-MB-435
UO-31 renal = system: UO-31 renal
KM12 colon = system: KM12 colon
OVCAR-5 ovarian = system: OVCAR-5 ovarian
HOP-62 NSCLC = system: HOP-62 NSCLC
MOLT-4 leukemia = system: MOLT-4 leukemia
SK-MEL-28 melanoma = system: SK-MEL-28 melanoma
SNB-75 CNS = system: SNB-75 CNS
CAKI-1 renal = system: CAKI-1 renal
SF-268 CNS = system: SF-268 CNS

SMILES	GI50 (MDA-MB-435) [µM]	TGI (MDA-MB-435) [µM]	GI50 (UO-31 renal) [µM]	TGI (UO-31 renal) [µM]	GI50 (KM12 colon) [µM]	TGI (KM12 colon) [µM]	GI50 (OVCAR-5 ovarian) [µM]	TGI (OVCAR-5 ovarian) [µM]	GI50 (HOP-62 NSCLC) [µM]	TGI (HOP-62 NSCLC) [µM]	GI50 (MOLT-4 leukemia) [µM]	TGI (MOLT-4 leukemia) [µM]	GI50 (SK-MEL-28 melanoma) [µM]	TGI (SK-MEL-28 melanoma) [µM]	GI50 (SNB-75 CNS) [µM]	TGI (SNB-75 CNS) [µM]	GI50 (CAKI-1 renal) [µM]	TGI (CAKI-1 renal) [µM]	GI50 (SF-268 CNS) [µM]	TGI (SF-268 CNS) [µM]
Cn1cc(C2=C(c3cccc(OCC(O)CO)c3)C(=O)NC2=O)c2ccccc21 (stereo not given)	> 19.1	> 25	> 25	> 25	> 25	> 25	> 25	> 25	> 25	> 25	> 25	> 25	> 25	> 25	5.86	> 25	> 25	> 25	> 25	> 25
CCCCN(CCCC)c1ccc(C(=N)c2ccc(N(CCCC)CCCC)cc2)cc1	0.642	2.21	0.32	1.38	0.334	1.25	0.88	2.31	0.748	2.11	0.604	2.14	1.05	2.41	0.746	2.14	0.535	1.82	0.679	1.93
O=C(Nc1ccc(Cl)cc1)Nc1ccc(Nc2nncc3ccccc23)cc1	2.14	9.42	1.9	15.8	1.47	11.4	4.15	34.3	3	14.9	2.09	6.36	3.04	12.8	1.88	8.67	1.97	12.5	3.19	28.1
CS[C@]12C(=O)C[C@@]3(C)[C@@H](CC[C@]3(O)C(=O)CO)[C@@H]1CCC1=CC(=O)CC[C@@]12C	–	> 100	–	> 100	–	> 100	–	> 100	–	> 100	–	> 100	–	> 100	–	> 100	–	> 100	–	> 100
O=C1c2c(O)cccc2C(C2OC(CO)C(O)C(O)C2O)c2cc(CO)cc(O)c21 (stereo not given)	–	> 100	–	> 100	–	> 100	–	> 100	–	> 100	–	> 100	–	> 100	–	> 100	–	> 100	–	> 100
